System: hTERT-BJ
Experiment: Cytotoxicity against hTERT-BJ cells at 12.50 uM after 48 hrs by resazurin dye-based fluorescence assay relative to control
Assay type: cell-based
Details: human, 12.5 µM

| Compound | Activity [%] |
| --- | --- |
| O=C(N/N=C/c1cccnc1)c1cc2cc(Br)ccc2oc1=O | 0.78 |
| CCOc1ccc2nc(Cl)c(/C=N/NC(=O)c3cc4ccc(O)cc4oc3=O)cc2c1 | 1.47 |
| O=C(N/N=C/c1cccnc1)c1cc2cc([N+](=O)[O-])ccc2oc1=O | 5.49 |
| CCOc1ccc(NC(=O)c2cc3ccccc3oc2=O)cc1 | 2.4 |
| O=C(N/N=C/c1cccnc1)c1cc2ccc(O)cc2oc1=O | 1.26 |

System: TERT-RPE1
Experiment: Cytotoxicity against hTERT-RPE1 cells at 50 uM after 48 hrs by resazurin dye-based fluorescence assay relative to control
Assay type: cell-based
Details: human, tert-rpe1, 48 h

| Compound | Activity [%] |
| --- | --- |
| O=C(N/N=C/c1cccnc1)c1cc2cc(Br)ccc2oc1=O | 34.12 |
| CCOc1ccc2nc(Cl)c(/C=N/NC(=O)c3cc4ccc(O)cc4oc3=O)cc2c1 | 13.99 |
| O=C(N/N=C/c1cccnc1)c1cc2cc([N+](=O)[O-])ccc2oc1=O | 17.11 |
| CCOc1ccc(NC(=O)c2cc3ccccc3oc2=O)cc1 | 23.27 |
| O=C(N/N=C/c1cccnc1)c1cc2ccc(O)cc2oc1=O | 20.79 |

System: PANC-1
Experiment: Antiproliferative activity against human PANC1 cells after 48 hrs by resazurin dye-based fluorescence assay
Assay type: functional, cell-based
Details: PANC-1, 48 h

| Compound | IC50 [µM] |
| --- | --- |
| O=C(N/N=C/c1cccnc1)c1cc2cc(Br)ccc2oc1=O | 8.35 |
| CCOc1ccc2nc(Cl)c(/C=N/NC(=O)c3cc4ccc(O)cc4oc3=O)cc2c1 | 0.129 |
| O=C(N/N=C/c1cccnc1)c1cc2cc([N+](=O)[O-])ccc2oc1=O | 11.8 |
| CCOc1ccc(NC(=O)c2cc3ccccc3oc2=O)cc1 | 13.4 |
| O=C(N/N=C/c1cccnc1)c1cc2ccc(O)cc2oc1=O | 2.52 |

System: HepG2
Experiment: Antiproliferative activity against human HepG2 cells after 48 hrs by resazurin dye-based fluorescence assay
Assay type: functional, cell-based
Details: HepG2, 48 h

| Compound | IC50 [µM] |
| --- | --- |
| O=C(N/N=C/c1cccnc1)c1cc2cc(Br)ccc2oc1=O | 19 |
| CCOc1ccc2nc(Cl)c(/C=N/NC(=O)c3cc4ccc(O)cc4oc3=O)cc2c1 | 19.2 |
| O=C(N/N=C/c1cccnc1)c1cc2cc([N+](=O)[O-])ccc2oc1=O | 17 |
| CCOc1ccc(NC(=O)c2cc3ccccc3oc2=O)cc1 | 10.4 |
| O=C(N/N=C/c1cccnc1)c1cc2ccc(O)cc2oc1=O | 18.4 |

System: not listed separately
Experiment: Selectivity index, ratio of IC50 for hTERT-RPE1 cells to IC50 for human PANC1 cells
Assay type: toxicity
Details: hTERT-RPE1 cells versus PANC1 cells, read-out: Ratio IC50

| Compound | selectivity ratio |
| --- | --- |
| O=C(N/N=C/c1cccnc1)c1cc2cc(Br)ccc2oc1=O | > 5.99 |
| CCOc1ccc2nc(Cl)c(/C=N/NC(=O)c3cc4ccc(O)cc4oc3=O)cc2c1 | > 388 |
| O=C(N/N=C/c1cccnc1)c1cc2cc([N+](=O)[O-])ccc2oc1=O | > 4.24 |
| CCOc1ccc(NC(=O)c2cc3ccccc3oc2=O)cc1 | > 3.74 |
| O=C(N/N=C/c1cccnc1)c1cc2ccc(O)cc2oc1=O | > 19.8 |

System: TERT-RPE1
Experiment: Cytotoxicity against hTERT-RPE1 cells at 12.50 uM after 48 hrs by resazurin dye-based fluorescence assay relative to control
Assay type: cell-based
Details: human, tert-rpe1, 48 h, 12.5 µM

| Compound | Activity [%] |
| --- | --- |
| O=C(N/N=C/c1cccnc1)c1cc2cc(Br)ccc2oc1=O | 12.55 |
| CCOc1ccc2nc(Cl)c(/C=N/NC(=O)c3cc4ccc(O)cc4oc3=O)cc2c1 | 8.35 |
| O=C(N/N=C/c1cccnc1)c1cc2cc([N+](=O)[O-])ccc2oc1=O | 2.22 |
| CCOc1ccc(NC(=O)c2cc3ccccc3oc2=O)cc1 | 12.77 |
| O=C(N/N=C/c1cccnc1)c1cc2ccc(O)cc2oc1=O | 12.79 |

System: TERT-RPE1
Experiment: Cytotoxicity against hTERT-RPE1 cells at 6.25 uM after 48 hrs by resazurin dye-based fluorescence assay relative to control
Assay type: cell-based
Details: human, tert-rpe1, 48 h

| Compound | Activity [%] |
| --- | --- |
| O=C(N/N=C/c1cccnc1)c1cc2cc(Br)ccc2oc1=O | 6.64 |
| CCOc1ccc2nc(Cl)c(/C=N/NC(=O)c3cc4ccc(O)cc4oc3=O)cc2c1 | 3.51 |
| O=C(N/N=C/c1cccnc1)c1cc2cc([N+](=O)[O-])ccc2oc1=O | 1.1 |
| CCOc1ccc(NC(=O)c2cc3ccccc3oc2=O)cc1 | 7.48 |
| O=C(N/N=C/c1cccnc1)c1cc2ccc(O)cc2oc1=O | 8.83 |

System: CCRF-CEM
Experiment: Antiproliferative activity against human CCRF-CEM cells after 48 hrs by resazurin dye-based fluorescence assay
Assay type: functional, cell-based
Details: not given

| Compound | IC50 [µM] |
| --- | --- |
| O=C(N/N=C/c1cccnc1)c1cc2cc(Br)ccc2oc1=O | 3.71 |
| CCOc1ccc2nc(Cl)c(/C=N/NC(=O)c3cc4ccc(O)cc4oc3=O)cc2c1 | 17.1 |
| O=C(N/N=C/c1cccnc1)c1cc2cc([N+](=O)[O-])ccc2oc1=O | 17.1 |
| CCOc1ccc(NC(=O)c2cc3ccccc3oc2=O)cc1 | 17.9 |
| O=C(N/N=C/c1cccnc1)c1cc2ccc(O)cc2oc1=O | 14.1 |

System: not listed separately
Experiment: Selectivity index, ratio of IC50 for hTERT-RPE1 cells to IC50 for human CCRF-CEM cells
Assay type: toxicity
Details: hTERT-RPE1 cells versus CCRF-CEM cells, read-out: Ratio IC50

| Compound | selectivity ratio |
| --- | --- |
| O=C(N/N=C/c1cccnc1)c1cc2cc(Br)ccc2oc1=O | > 13.5 |
| CCOc1ccc2nc(Cl)c(/C=N/NC(=O)c3cc4ccc(O)cc4oc3=O)cc2c1 | > 2.92 |
| O=C(N/N=C/c1cccnc1)c1cc2cc([N+](=O)[O-])ccc2oc1=O | > 2.92 |
| CCOc1ccc(NC(=O)c2cc3ccccc3oc2=O)cc1 | > 2.79 |
| O=C(N/N=C/c1cccnc1)c1cc2ccc(O)cc2oc1=O | > 3.55 |

System: hTERT-BJ
Experiment: Cytotoxicity against hTERT-BJ cells at 50 uM after 48 hrs by resazurin dye-based fluorescence assay relative to control
Assay type: cell-based
Details: human

| Compound | Activity [%] |
| --- | --- |
| O=C(N/N=C/c1cccnc1)c1cc2cc(Br)ccc2oc1=O | 2.33 |
| CCOc1ccc2nc(Cl)c(/C=N/NC(=O)c3cc4ccc(O)cc4oc3=O)cc2c1 | 5.63 |
| O=C(N/N=C/c1cccnc1)c1cc2cc([N+](=O)[O-])ccc2oc1=O | 3.99 |
| CCOc1ccc(NC(=O)c2cc3ccccc3oc2=O)cc1 | 3.08 |
| O=C(N/N=C/c1cccnc1)c1cc2ccc(O)cc2oc1=O | 2.27 |

System: not listed separately
Experiment: Selectivity index, ratio of IC50 for hTERT-BJ cells to IC50 for human CCRF-CEM cells
Assay type: toxicity
Details: hTERT-BJ cells versus CCRF-CEM cells, read-out: Ratio IC50

| Compound | selectivity ratio |
| --- | --- |
| O=C(N/N=C/c1cccnc1)c1cc2cc(Br)ccc2oc1=O | > 13.5 |
| CCOc1ccc2nc(Cl)c(/C=N/NC(=O)c3cc4ccc(O)cc4oc3=O)cc2c1 | > 2.92 |
| O=C(N/N=C/c1cccnc1)c1cc2cc([N+](=O)[O-])ccc2oc1=O | > 2.92 |
| CCOc1ccc(NC(=O)c2cc3ccccc3oc2=O)cc1 | > 2.79 |
| O=C(N/N=C/c1cccnc1)c1cc2ccc(O)cc2oc1=O | > 3.55 |

System: hTERT-BJ
Experiment: Cytotoxicity against hTERT-BJ cells at 25 uM after 48 hrs by resazurin dye-based fluorescence assay relative to control
Assay type: cell-based
Details: human

| Compound | Activity [%] |
| --- | --- |
| O=C(N/N=C/c1cccnc1)c1cc2cc(Br)ccc2oc1=O | 1.7 |
| CCOc1ccc2nc(Cl)c(/C=N/NC(=O)c3cc4ccc(O)cc4oc3=O)cc2c1 | 2.26 |
| O=C(N/N=C/c1cccnc1)c1cc2cc([N+](=O)[O-])ccc2oc1=O | 3.22 |
| CCOc1ccc(NC(=O)c2cc3ccccc3oc2=O)cc1 | 2.82 |
| O=C(N/N=C/c1cccnc1)c1cc2ccc(O)cc2oc1=O | 1.99 |

System: not listed separately
Experiment: Selectivity index, ratio of IC50 for hTERT-BJ cells to IC50 for human HepG2 cells
Assay type: toxicity
Details: hTERT-BJ cells versus HepG2 cells, read-out: Ratio IC50

| Compound | selectivity ratio |
| --- | --- |
| O=C(N/N=C/c1cccnc1)c1cc2cc(Br)ccc2oc1=O | > 2.63 |
| CCOc1ccc2nc(Cl)c(/C=N/NC(=O)c3cc4ccc(O)cc4oc3=O)cc2c1 | > 2.6 |
| O=C(N/N=C/c1cccnc1)c1cc2cc([N+](=O)[O-])ccc2oc1=O | > 2.94 |
| CCOc1ccc(NC(=O)c2cc3ccccc3oc2=O)cc1 | > 4.83 |
| O=C(N/N=C/c1cccnc1)c1cc2ccc(O)cc2oc1=O | > 2.72 |

System: hTERT-BJ
Experiment: Cytotoxicity against hTERT-BJ cells at 6.25 uM after 48 hrs by resazurin dye-based fluorescence assay relative to control
Assay type: cell-based
Details: human

| Compound | Activity [%] |
| --- | --- |
| O=C(N/N=C/c1cccnc1)c1cc2cc(Br)ccc2oc1=O | 0.86 |
| CCOc1ccc2nc(Cl)c(/C=N/NC(=O)c3cc4ccc(O)cc4oc3=O)cc2c1 | 3.67 |
| O=C(N/N=C/c1cccnc1)c1cc2cc([N+](=O)[O-])ccc2oc1=O | 3.59 |
| CCOc1ccc(NC(=O)c2cc3ccccc3oc2=O)cc1 | 0.59 |
| O=C(N/N=C/c1cccnc1)c1cc2ccc(O)cc2oc1=O | 0.5 |

System: TERT-RPE1
Experiment: Cytotoxicity against hTERT-RPE1 cells after 48 hrs by resazurin dye-based fluorescence assay
Assay type: cell-based
Details: Homo sapiens, RPE-1, 48 h

| Compound | IC50 [µM] |
| --- | --- |
| O=C(N/N=C/c1cccnc1)c1cc2cc(Br)ccc2oc1=O | > 50 |
| CCOc1ccc2nc(Cl)c(/C=N/NC(=O)c3cc4ccc(O)cc4oc3=O)cc2c1 | > 50 |
| O=C(N/N=C/c1cccnc1)c1cc2cc([N+](=O)[O-])ccc2oc1=O | > 50 |
| CCOc1ccc(NC(=O)c2cc3ccccc3oc2=O)cc1 | > 50 |
| O=C(N/N=C/c1cccnc1)c1cc2ccc(O)cc2oc1=O | > 50 |

System: TERT-RPE1
Experiment: Cytotoxicity against hTERT-RPE1 cells at 25 uM after 48 hrs by resazurin dye-based fluorescence assay relative to control
Assay type: cell-based
Details: human, tert-rpe1, 48 h

| Compound | Activity [%] |
| --- | --- |
| O=C(N/N=C/c1cccnc1)c1cc2cc(Br)ccc2oc1=O | 25.4 |
| CCOc1ccc2nc(Cl)c(/C=N/NC(=O)c3cc4ccc(O)cc4oc3=O)cc2c1 | 8.85 |
| O=C(N/N=C/c1cccnc1)c1cc2cc([N+](=O)[O-])ccc2oc1=O | 10.95 |
| CCOc1ccc(NC(=O)c2cc3ccccc3oc2=O)cc1 | 22.19 |
| O=C(N/N=C/c1cccnc1)c1cc2ccc(O)cc2oc1=O | 14.34 |

System: hTERT-BJ
Experiment: Cytotoxicity against hTERT-BJ cells after 48 hrs by resazurin dye-based fluorescence assay
Assay type: cell-based
Details: Homo sapiens

| Compound | IC50 [µM] |
| --- | --- |
| O=C(N/N=C/c1cccnc1)c1cc2cc(Br)ccc2oc1=O | > 50 |
| CCOc1ccc2nc(Cl)c(/C=N/NC(=O)c3cc4ccc(O)cc4oc3=O)cc2c1 | > 50 |
| O=C(N/N=C/c1cccnc1)c1cc2cc([N+](=O)[O-])ccc2oc1=O | > 50 |
| CCOc1ccc(NC(=O)c2cc3ccccc3oc2=O)cc1 | > 50 |
| O=C(N/N=C/c1cccnc1)c1cc2ccc(O)cc2oc1=O | > 50 |

System: not listed separately
Experiment: Selectivity index, ratio of IC50 for hTERT-BJ cells to IC50 for human PANC1 cells
Assay type: toxicity
Details: hTERT-BJ cells versus PANC1 cells, read-out: Ratio IC50

| Compound | selectivity ratio |
| --- | --- |
| O=C(N/N=C/c1cccnc1)c1cc2cc(Br)ccc2oc1=O | > 5.99 |
| CCOc1ccc2nc(Cl)c(/C=N/NC(=O)c3cc4ccc(O)cc4oc3=O)cc2c1 | > 388 |
| O=C(N/N=C/c1cccnc1)c1cc2cc([N+](=O)[O-])ccc2oc1=O | > 4.24 |
| CCOc1ccc(NC(=O)c2cc3ccccc3oc2=O)cc1 | > 3.74 |
| O=C(N/N=C/c1cccnc1)c1cc2ccc(O)cc2oc1=O | > 19.8 |

System: not listed separately
Experiment: Selectivity index, ratio of IC50 for hTERT-RPE1 cells to IC50 for human HepG2 cells
Assay type: toxicity
Details: hTERT-RPE1 cells versus HepG2 cells, read-out: Ratio IC50

| Compound | selectivity ratio |
| --- | --- |
| O=C(N/N=C/c1cccnc1)c1cc2cc(Br)ccc2oc1=O | > 2.63 |
| CCOc1ccc2nc(Cl)c(/C=N/NC(=O)c3cc4ccc(O)cc4oc3=O)cc2c1 | > 2.6 |
| O=C(N/N=C/c1cccnc1)c1cc2cc([N+](=O)[O-])ccc2oc1=O | > 2.94 |
| CCOc1ccc(NC(=O)c2cc3ccccc3oc2=O)cc1 | > 4.83 |
| O=C(N/N=C/c1cccnc1)c1cc2ccc(O)cc2oc1=O | > 2.72 |

— ChEMBL document CHEMBL4152218, “Novel hydrazide-hydrazone and amide substituted coumarin derivatives: Synthesis, cytotoxicity screening, microarray, radiolabeling and in vivo pharmacokinetic studies” (Eur J Med Chem, 2018)
